# Measurements from US20190194607A1, “HIGHLY FUNCTIONAL LIVER CELLS DERIVED FROM PLURIPOTENT STEM CELLS, METHOD FOR PRODUCING SAME, AND METHOD FOR TESTING METABOLISM/TOXICITY OF DRUG” (DNAVEC CORPORATION, priority 2011, published 2019).
# Columns and labels:
# [1] = system: undifferentiated ES cells; test: Drug toxicity test: deviation enzymes in culture supernatant, undifferentiated human ES cells; type: cell-based; details: D-GalN 25 mM, 24 hours; FIG. 15(B)
# [2] = system: undifferentiated SeV-iPS cells; test: Drug toxicity test: deviation enzymes in culture supernatant, undifferentiated SeV-iPS cells; type: cell-based, human; details: cultured in the presence of D-GalN; FIG. 15(F)
# [3] = system: hepatocytes derived from human ES cells (KhES-1 cell line); test: Drug toxicity test: liver deviation enzymes in culture supernatant, human ES cell-derived hepatocytes; type: cell-based; details: D-GalN 25 mM, 24 hours; hepatocytes 28th day from differentiation induction; FIG. 15(A)
# Procedure: (§1) D-Galactosamine (D-GalN), which is known to have toxicity to hepatocytes, was added to pluripotent stem cell-derived hepatocytes at a final concentration of 25 mM, followed by culture at 37° C. After 24 hours, 1.5 mL of culture supernatant was collected and was centrifuged at 15000 rpm at 4° C. to completely remove cell components. The concentrations of liver-derived deviation enzymes contained in the supernatant, i.e., glutamic oxaloacetic transaminase (GOT), glutamic pyruvic transaminase (GPT), γ-glutamyl transpeptidase (y-GTP), leucine aminopeptidase (LAP), lactate dehydrogenase (LDH), and LDH isozyme (LDH 1 to 5), were measured (performed at BML Inc., Shibuya, Tokyo, Japan).
# HepG2 cells = test: Drug toxicity test: deviation enzymes in culture supernatant, HepG2 cells; type: cell-based, human; details: cultured in the presence of D-GalN; FIG. 15(H)
# Procedure: (§2) The HepaRG cells were cultured in accordance with the protocol of BIOPREDIC international. The HepG2 cells were purchased from Health Science Research Resources Bank, and the human primary cultured adult hepatocyte cell line was purchased from DS Pharma Biomedical Co., Ltd. (Osaka, Japan). They were cultured using a CS-C medium kit of Cell Systems Corporation (Kirkland, WA, USA). In the figure, 253G1 refers to a human iPS cell line established at Kyoto University, #40 refers to a human iPS cell line established at National Center for Child Health and Development, SeV refers to an iPS cell line induced using a SeV vector, ES-K1 refers to a human ES cell line established at Kyoto University, and CTL is an abbreviation of control.
# as §1
# HepaRG cells = test: Drug toxicity test: deviation enzymes in culture supernatant, HepaRG cells; type: cell-based, human; details: cultured in the presence of D-GalN; FIG. 15(G)
# Procedure: as §2, §1
# [4] = system: hepatocytes derived human iPS cells (#40); test: Drug toxicity test: deviation enzymes in culture supernatant, human iPS cell-derived hepatocytes; type: cell-based; details: D-GalN 25 mM, 24 hours; FIG. 15(C)
# Procedure: as §1
# [5] = system: undifferentiated ES cells; test: Drug toxicity test: deviation enzymes in culture supernatant, undifferentiated cells of FIG. 15(D); type: cell-based, human; details: D-GalN 25 mM, 24 hours
# [6] = system: SeV-iPS-derived hepatocytes; test: Drug toxicity test: deviation enzymes in culture supernatant, SeV-iPS-derived hepatocytes; type: cell-based, human; details: cultured in the presence of D-GalN; FIG. 15(E)
# Procedure: as §1
# [7] = system: hepatocytes derived from a #40 cell line; test: PGE1 pretreatment before D-GalN administration: deviation enzymes in culture supernatant; type: cell-based, human; details: 4 mM PGE1 pretreatment, 37° C. for 4 hours, then D-GalN administration; FIG. 16
# Procedure: as §1
# That is, 4 mM PGE1 was added to hepatocytes derived from a #40 cell line in advance, and the hepatocytes were cultured at 37° C. for 4 hours and were subjected to a D-GalN administration experiment as in above. […] Similar tendencies were detected in the samples of hepatocyte differentiation induction from other human iPS cell lines and human ES cell lines.
compound,measurement,setting,value
"N[C@H]1C(O)O[C@H](CO)[C@H](O)[C@@H]1O (stereo partly drawn) [D-GalN, D-Galactosamine]",levels of all of the deviation enzymes in culture supernatant,[1],did not increase
same,level of GOT in the culture supernatant,[2],did not increase
same,LDH isozyme pattern,[3],“liver damage-type” pattern in which type 4 and type 5 are dominant
same,level of GOT in culture supernatant,[3],increased
same,level of LAP in culture supernatant,[3],increased
same,level of LDH in culture supernatant,[3],increased
same,level of γ-GTP in culture supernatant,[3],increased
same,level of GOT in the culture supernatant,HepG2 cells,increased
same,level of GPT in the culture supernatant,HepG2 cells,increased
same,level of LAP in the culture supernatant,HepG2 cells,did not increase
same,level of LDH-5 in the culture supernatant,HepG2 cells,increased
same,level of γ-GTP in the culture supernatant,HepG2 cells,did not increase
same,level of GOT in the culture supernatant,HepaRG cells,increased
same,level of GPT in the culture supernatant,HepaRG cells,increased
same,level of LAP in the culture supernatant,HepaRG cells,increased
same,level of LDH-5 in the culture supernatant,HepaRG cells,increased
same,level of γ-GTP in the culture supernatant,HepaRG cells,did not increase
same,LDH isozyme pattern,[4],“liver damage-type” pattern in which type 4 and type 5 are dominant
same,level of GOT in culture supernatant,[4],increased
same,level of GPT in culture supernatant,[4],increased
same,level of LAP in culture supernatant,[4],increased
same,level of LDH in culture supernatant,[4],increased
same,level of γ-GTP in culture supernatant,[4],increased
same,level of GOT in culture supernatant,[5],did not increase
same,level of GPT in culture supernatant,[5],did not increase
same,level of LAP in culture supernatant,[5],did not increase
same,level of LDH in culture supernatant,[5],did not increase
same,level of γ-GTP in culture supernatant,[5],did not increase
same,level of GOT in the culture supernatant,[6],increased
"CCCCC[C@H](O)/C=C/[C@H]1[C@H](O)CC(=O)[C@@H]1CCCCCCC(=O)O [PGE1, prostaglandin E1]",levels of all the deviation enzymes from the liver detected in the culture supernatant after D-GalN,[7],significantly suppressed
